# pKd: −log10 of the molar value.
# Target: NC1 (DGCR8 dimer) (Homo sapiens, UniProt Q8WYQ5, P351A)
# Experiment: biochemical
# Chain of NC1 (DGCR8 dimer) (Q8WYQ5 276-751 P351A): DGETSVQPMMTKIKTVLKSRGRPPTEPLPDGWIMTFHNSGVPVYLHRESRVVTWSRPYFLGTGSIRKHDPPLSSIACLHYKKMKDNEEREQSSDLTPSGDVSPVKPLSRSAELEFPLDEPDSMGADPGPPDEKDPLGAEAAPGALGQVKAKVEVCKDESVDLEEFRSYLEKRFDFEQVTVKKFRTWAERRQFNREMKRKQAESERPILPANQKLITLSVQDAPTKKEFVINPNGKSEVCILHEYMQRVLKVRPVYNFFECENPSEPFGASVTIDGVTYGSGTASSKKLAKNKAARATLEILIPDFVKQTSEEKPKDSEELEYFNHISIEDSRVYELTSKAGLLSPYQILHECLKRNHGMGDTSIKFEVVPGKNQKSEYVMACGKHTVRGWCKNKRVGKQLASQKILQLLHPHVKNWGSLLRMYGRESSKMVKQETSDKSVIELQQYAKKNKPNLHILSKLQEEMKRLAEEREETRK
compound,measurement,value
C=CC1=C(C)C2=Cc3c(C=C)c(C)c4[n]3[Fe]([Cl])[n]3c(c(C)c(CCC(=O)O)c3=CC3=NC(=C4)C(C)=C3CCC(=O)O)=CC1=N2 [Fe(III) heme],pKd,~11.30

# From publication doi:10.1101/2020.02.18.955294v1 (biorxiv, 2020)
